How the values were obtained:
[1] = molecular target: T1, recombinant wild-type TTR (Homo sapiens, UniProt P02766); assay: Stopped flow kinetics of ligand binding by fluorescence emission; conditions: for rate constant k of TTR intrinsic fluorescence quenching / very early change in TTR fluorescence during dead time: 1 μM TTR; for rate constant k of TTR intrinsic fluorescence quenching: 1 μM ligand, 37 °C, PBS pH 7.4, first second; for very early change in TTR fluorescence during dead time: dead time <5 ms, equimolar ligand
T1 construct: Native TTR is a noncovalent homotetramer of β-sheet-rich 127-residue protomers; His6 (N); TEV cleavage site (N); made in house; host or cells: E. coli BL21 (DE3)
Procedure: Interaction of ligands in the TTR thyroxine binding pockets induces quenching of intrinsic fluorescence emission.
Kinetics of binding within the first second of reaction was evaluated with an SFM 3000 stopped flow device coupled to a MOS500 spectrometer with a fluorescence detection system (Bio Logic, Claix, France) and a cell path length of 1.5 mm (dead-time <5 ms). Total fluorescence emission over 325 nm, using a cut off filter, was monitored after excitation at 280 nm at 37 °C and 1 μM recombinant wild-type TTR in the presence of 1 μM of ligand in PBS pH 7.4 at a final concentration of 0.9% DMSO. Kinetic data were acquired as the average of at least 3 experimental mixings and fitted using the following equation y(t)=q+Aexp(−kt) where y(t) is the observed fluorescence q the offset of the baseline. A and k are, respectively, amplitude and rate constant of the observed fluorescence change.

V122I TTR [2] = molecular target: T2, V122I TTR (Homo sapiens, UniProt P02766, V142I); assay: Inhibition of mechano-enzymatic fibrillogenesis (ThT); type: biochemical
T2 construct: 1-127; His6 (N); TEV cleavage site (N); made in house; host or cells: E. coli BL21 (DE3)
Procedure: To test their potency as inhibitors of TTR fibril formation, the 15 ligands were evaluated for their ability to inhibit the mechano-enzymatic mechanism of fibrillogenesis of V122I TTR, which is one of the most common amyloidogenic variants, , causing a disease with severity intermediate between the wild-type and other rare, more aggressive types of amyloidosis. […] Biochemical activity of ligands together with their physicochemical properties (i.e., cLogD, TPSA) were taken into consideration and B26 was finally selected as the most promising lead for further studies (Figure A). […] Prototype mds84 was also included for comparison. […] Although higher molar ratios of the monovalent ligands did inhibit fibrillogenesis, this cannot be replicated in vivo because the negative cooperativity of TTR cannot be overcome at feasible drug dosage. ,
Recombinant V122I TTR at 0.5 mg/mL (9 μM) in PBS, pH 7.4 was preincubated (37 °C for 30 min) with an equimolar concentration of ligand (or DMSO alone) before adding trypsin (5 ng/μL). Protein fibrillogenesis was carried out in glass vials stirred at 1400 rpm (IKA magnetic stirrer), 37 °C and spectrophotometric turbidity at 400 nm was used to monitor fibril formation over time until it reached a plateau at 96 h.
Analysis of amyloid material harvested from each sample at the end of the fibrillogenesis was carried out using Thioflavin T (ThT) emission fluorescence and Congo red staining. For these analyses, samples were centrifuged 20 min at 11,600g and pellets were thoroughly rinsed with PBS to remove nonbound ligand, resuspended with 100 μL PBS, pH 7.4, containing 10 μM Thioflavin T (ThT) in Costar 96-well black-wall plates. Bottom fluorescence values (excitation 440 nm, emission 480 nm) were recorded using a BMG LABTECH FLUostar Omega plate reader. Each value was normalized to the ThT signal of the TTR sample without ligand.

V122I TTR [3] = molecular target: T2, V122I TTR; assay: Electrophoretic analysis of V122I TTR proteolysis before and after mechano-enzymatic aggregation; type: biochemical; conditions: SDS-PAGE, trypsin, 96 h aggregation
Procedure: Figure S2. Effect of B26 on proteolysis of V122I TTR. Homogenous SDS-12% PAGE under reducing conditions of 9 µM V122I TTR before (a) and after 96 h aggregation in the presence of 0 (b), 4.5 µM (c), 9 (d), 18 (e) and 36 µM (f) of B26 respectively in PBS pH 7.4 at 37°C. Aggregation was carried out under fluid agitation and addition of trypsin at an enzyme: substrate ratio of 1:200. LMW marker […]

TTR = molecular target: T3, TTR (Homo sapiens, UniProt P02766); assay: NMR saturation transfer difference (STD) experiments to estimate k off; type: binding; conditions: no STD signal observed by increasing the saturation time
T3 construct: Native TTR is a noncovalent homotetramer of β-sheet-rich 127-residue protomers; His6 (N); TEV cleavage site (N); made in house; host or cells: E. coli BL21 (DE3)
Description: However, the prototype mds84 was unsuitable for drug development due to its large and highly hydrophobic structure. The bivalent compound B26 represents the evolution of such TTR ligands. Compared to the palindromic prototype, the molecule has reduced size and reduced lipophilicity as a consequence of the removal of one of the aryl rings from headgroup B; introduction of an oxygen in the six-atom linker; replacement of the benzoyl group in headgroup A with 4-carboxy pyridine. Despite these structural changes, the ligand retains the same pseudoirreversible binding of mds84. […] Therefore, the B26 ligand overcomes the pharmaceutical limitations of negative cooperativity and, at the same time, retains the biomolecular property of very strong inhibition of TTR fibrillogenesis by simultaneously occupying the two ligand binding sites. Each of them is able to accommodate two aryl rings, and the one that penetrates deeper into the cavity is anchored to the protein by two halogen substituents. We have designed a bivalent molecule in which one-half has the properties of a classical analogue of the thyroid hormone, and the second half, connected through a chemical linker, is represented by only one aryl ring with halogen substituents.

[4] = molecular target: T4, wild-type TTR in normal human plasma (Homo sapiens, UniProt P02766); assay: Displacement of 125I-T4 from TTR in normal human plasma; type: binding
T4 construct: TTR in whole plasma, from individuals homozygous for wild-type TTR; from tissue; host or cells: whole human plasma from individuals homozygous for wild-type TTR

Rat pharmacokinetics = type: in vivo; conditions: data not shown
[5] = residual V122I TTR fibrillar aggregation with equimolar ligand, ThT emission normalized to protein without ligand, mean ± SD
[6] = supplementary CSV, residual V122I TTR aggregation, equimolar ligand

| Structure (SMILES) | rate constant k of TTR intrinsic fluorescence quenching [1] | very early change in TTR fluorescence during dead time [1] | inhibition of V122I TTR amyloid formation at equimolar ligand/protein, in words (V122I TTR [2]; 9 μM V122I TTR, equimolar concentration, bivalent vs monovalent ligands) | effect on proteolysis of V122I TTR (V122I TTR [3]) | k off (TTR) | quenching reaction / penetrance faster than mds84 ([1]; ratio of rate constants) | quenching reaction slower than tafamidis ([1]; ratio of rate constants) | reduction of TTR intrinsic fluorescence ([1]; within the first second, equimolar protein and ligand) | binding to TTR in plasma, in words ([4]; normal human plasma) | antifibrillogenic activity, in words (V122I TTR [2]; V122I TTR, equimolar ligand) | Agg (%) (V122I TTR [2]; [5]) | Agg (%) (V122I TTR [2]; [6]) | IC50 ([4]; ligand concentration reducing binding of 125I-thyroxine by wild-type TTR by 50% in normal human plasma, mean ± SD) | IC50 ([4]; capacity to displace 125I-T4 from TTR in human plasma) | rat pharmacokinetics compared with mds84 (Rat pharmacokinetics) |
| --- | --- | --- | --- | --- | --- | --- | --- | --- | --- | --- | --- | --- | --- | --- | --- |
| O=C(O)c1ccc2nc(-c3cc(Cl)cc(Cl)c3)oc2c1 [tafamidis, reference compound] | 49 ± 0.0016 s^–1 | approximately 8% | significantly lower inhibitory effect | – | – | – | – | – | – | – | – | – | – | – | – |
| O=C(O)CCc1cc(Cl)c(OCCCOCCOc2c(Cl)cc(Nc3cnccc3C(=O)O)cc2Cl)c(Cl)c1 [B26, 3-[4-[2-[3-[4-(2-Carboxyethyl)-2,6-dichloro-phenoxy]-propoxy]-ethoxy]-3,5-dichloro-anilino]-Pyridine-4-Carboxylic Acid] | 22 ± 0.55 s^–1 | approximately 8% | – | inhibited proteolysis | very slow | 5 fold | at least 2 fold | ~30% | preservation of the properties | excellent antifibrillogenic activity | 4.2 ± 1.9% | 4.2±1.9% | – | – | – |
| O=C(O)c1ccccc1Nc1cc(Cl)c(OCCCCCCCOc2c(Cl)cc(Nc3ccccc3C(=O)O)cc2Cl)c(Cl)c1 [mds84, reference compound] | 4.4 ± 0.44 s^–1 | 3% | – | – | – | – | – | – | – | – | 2.4 ± 0.30% | 2.4±0.30% | 19 ± 5.8 µM | – | – |
| O=C(O)CCc1cc(Cl)c(OCCCCCCCOc2c(Cl)cc(Nc3ccccc3C(=O)O)cc2Cl)c(Cl)c1 [compound 1] | – | – | – | – | – | – | – | – | – | – | – | – | – | 2 ± 0.2 µM | much improved |
